Assay [1] deals with IL-17A secretion in activated PBMCs. The assay can be described thus: IL-17A secretion in activated PBMCs. As to conditions: human PBMCs stimulated with CD3/CD28 Dynabeads for 48 h, absolute IC50. In kind it is cell-based, human. How it is done: Heparin-treated whole blood from healthy human volunteers was supplied from Hospital de Sant Pau (Barcelona) under the approval of the local ethical review board for human studies (Hospital de Sant Pau, Barcelona, Spain). Human peripheral blood mononuclear cells (PBMCs) were isolated from healthy human volunteers by density gradient centrifugation using the Ficoll-Paque (GE Healthcare). […] Cells were seeded in 384-well plate (DiscoverX), at 40,000 cells per well and cultured 2 h at 37° C. and 5% CO2.
Dose-response curves with compounds were prepared using a 5-fold serial dilution (10 concentrations) in 100% DMSO and further diluted 100-fold in culture medium. Compound solutions (5 μL) were added to the plate containing cells (final DMSO concentration of 0.1%) and incubated for 30 min. Then, cells were stimulated with CD3/CD28 Dynabeads (ThermoFisher, at a bead-to-cell ratio of 1:1) for 48 h at 37° C. and 5% CO2.
IL-17A levels in supernatant were determined by immunoassay using hIL17A QBeads (Intellicyt) and by fluorescence analysis in iQue flow cytometer following the manufacturer's instructions. Inhibition of IL-17A secretion was calculated using the following formula: inhibition=100*[1−[(x−mean basal condition)/(mean top condition−mean basal condition)]]. Activated DMSO-treated cells were used as top condition and activated GNE09461 (10 μM)-treated cells as basal condition.

In assay [2] the target is T1, RORγ ligand-binding domain fused to Gal4 (Homo sapiens, UniProt P51449).
T1 construct: Gal4 (galactose-responsive transcription factor); expressed in transfected cells; host or cells: HEK293
T1 sequence (P51449 269-508 limits assumed): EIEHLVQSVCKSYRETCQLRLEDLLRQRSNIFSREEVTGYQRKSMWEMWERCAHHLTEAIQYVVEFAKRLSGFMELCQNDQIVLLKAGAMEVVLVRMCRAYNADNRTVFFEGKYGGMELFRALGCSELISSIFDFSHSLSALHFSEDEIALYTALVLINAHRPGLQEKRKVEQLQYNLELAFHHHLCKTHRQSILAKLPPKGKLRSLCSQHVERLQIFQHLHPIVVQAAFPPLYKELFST
Kind of assay: RORγ Reporter Assay (Gal4). The assay is classed as cell-based. Put shortly: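 HEK293 cells transiently co-transfected with the Gal4-fused RORγ LBD and a UAS-luciferase reporter were exposed to compounds for 24 h at 37 °C (0.1% DMSO final). Luminescence was read, and percent reduction of RORγ activity was calculated relative to vehicle-average RLU.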
For orientation: A reporter such as luciferase makes a cellular process visible.

The mark [3] stands for this setting: HEK293 cells co-transfected with RORγ LBD-Gal4 and luciferase reporter, 24 h incubation, absolute EC50, read-out: EC50.
[4] abbreviates: compounds of the present disclosure, value from Table 2 herein, read-out: Gal4 assay EC50.

SMILES strings stand for the structures. Like-named read-outs stand apart in the source and are kept apart here.

Broadly, the IC50 is the concentration needed to halve the response being measured. As usually defined, the EC50 is the midpoint of the concentration-response curve. `Cn1cc(-c2ccc(CN(c3ncnc(NC[C@@H]4CCN(CC(N)=O)C[C@H]4O)c3F)C3CC3)cc2)cn1` (racemic) [Example A7-74, rac-2-((3R,4R)-4-(((6-(cyclopropyl(4-(1-methyl-1H-pyrazol-4-yl)benzyl)amino)-5-fluoropyrimidin-4-yl)amino)methyl)-3-hydroxypiperidin-1-yl)acetamide]: in assay [1] (Homo sapiens, PBMC, 48 h), the IC50 was found to be 0.023 µM. Also, in assay [2] (setting [3]), the concentration for a half-maximal effect (EC50) was determined as 0.012 µM.
Turning to `NC(=O)CN1CCC(CNc2ncnc(N(Cc3ccc(C(F)(F)F)cc3)C3CC3)c2F)(C(N)=O)CC1` [Example A7-44, 1-(2-amino-2-oxoethyl)-4-(((6-(cyclopropyl(4-(trifluoromethyl)benzyl)amino)-5-fluoropyrimidin-4-yl)amino)methyl)piperidine-4-carboxamide], in assay [1] (Homo sapiens, PBMC, 48 h), half-maximal inhibition (IC50) required 0.074 µM. The EC50 in assay [2] (setting [3]) was 0.024 µM.
Compound `NC(=O)CN1CC[C@@H](CNc2ncnc(N(Cc3ccc(OC(F)F)cc3)C3CC3)c2F)[C@H](O)C1` (racemic) [Example A7-43, rac-2-((3R,4R)-4-(((6-(cyclopropyl(4-(difluoromethoxy)benzyl)amino)-5-fluoropyrimidin-4-yl)amino)methyl)-3-hydroxypiperidin-1-yl)acetamide] yielded an IC50 in assay [1] (Homo sapiens, PBMC, 48 h) of 0.035 µM. In addition, the EC50 in assay [2] (setting [3]) is 0.011 µM.
Regarding `Cn1cc(-c2ccc(CN(c3ncnc(NC[C@]4(O)CCN(CC(N)=O)C[C@H]4O)c3F)C3CC3)c(F)c2)cn1` (single isomer, unassigned) [Example D5-05-2], the concentration for half-maximal inhibition (IC50) in assay [1] was 0.2 µM. For the same compound, the EC50 in assay [2] (setting [3]) was 0.029 µM.
In assay [1] (Homo sapiens, PBMC, 48 h), `NC(=O)CN1CCC(CNc2ncnc(N(Cc3ccc(C(F)(F)F)cc3)C3CC3)c2F)(c2ncon2)CC1` [Example A7-81, 2-(4-(((6-(Cyclopropyl(4-(trifluoromethyl)benzyl)amino)-5-fluoropyrimidin-4-yl)amino)methyl)-4-(1,2,4-oxadiazol-3-yl)piperidin-1-yl)acetamide] displayed an IC50 of 0.12 µM. Further, the EC50 in assay [2] (setting [3]) stood at 0.0053 µM.
In turn, `CCN(Cc1ccc(-n2cccn2)cc1)c1ncnc(NC[C@@H]2CCN(CC(N)=O)C[C@H]2O)c1F` (racemic) [Example A7-77, rac-2-((3R,4R)-4-(((6-((4-(1H-Pyrazol-1-yl)benzyl)(ethyl)amino)-5-fluoropyrimidin-4-yl)amino)methyl)-3-hydroxypiperidin-1-yl)acetamide] came in with an IC50 in assay [1] (Homo sapiens, PBMC, 48 h) of 0.44 µM. Further, in assay [2] (setting [3]), the EC50 worked out at 0.073 µM.
Compound `NC(=O)CN1CC[C@@H](CNc2ncnc(N(Cc3ccc(OC(F)F)cc3F)C3CC3)c2F)[C@H](O)C1` (racemic) [Example A7-42, rac-2-((3R,4R)-4-(((6-(cyclopropyl(4-(difluoromethoxy)-2-fluorobenzyl)amino)-5-fluoropyrimidin-4-yl)amino)methyl)-3-hydroxypiperidin-1-yl)acetamide] registered an IC50 in assay [1] (Homo sapiens, PBMC, 48 h) of 0.2 µM. Further, the EC50 in assay [2] (setting [3]) is 0.018 µM.
The matching figures for `NC(=O)CN1CC[C@@H](CNc2ncnc(N(Cc3ccc(C(F)(F)F)cc3)[C@H]3C[C@@H](F)C3)c2F)[C@H](O)C1` (racemic) [Example A7-32, rac-2-((3R,4R)-4-(((5-fluoro-6-(((1s,3R)-3-fluorocyclobutyl)(4-(trifluoromethyl)benzyl)amino)pyrimidin-4-yl)amino)methyl)-3-hydroxypiperidin-1-yl)acetamide]: 0.22 µM and 0.034 µM.
The matching figures for `NC(=O)C(c1ccncc1)N1CC[C@](O)(CNc2ncnc(N(Cc3ccc(C(F)(F)F)cc3)C3CC3)c2F)[C@@H](O)C1` (relative stereo) [Example D5-08, rel-2-((3R,4R)-4-(((6-(cyclopropyl(4-(trifluoromethyl)benzyl)amino)-5-fluoropyrimidin-4-yl)amino)methyl)-3,4-dihydroxypiperidin-1-yl)-2-(pyridin-4-yl)acetamide]: 0.0027 µM and 0.0061 µM.
The matching figures for `CCN(Cc1ccc(C(F)(F)F)cc1)c1ncnc(NC[C@@H]2CCN(C(C(N)=O)c3ccncc3)C[C@H]2O)c1F` (mixture of isomers) [Example A7-62, rac-2-((3R,4R)-4-(((6-(Ethyl(4-(trifluoromethyl)benzyl)amino)-5-fluoropyrimidin-4-yl)amino)methyl)-3-hydroxypiperidin-1-yl)-2-(pyridin-4-yl)acetamide]: 0.0072 µM and 0.0018 µM.
As to `NC(=O)CN1CCC(O)(CNc2ncnc(N(Cc3ccc(C(F)(F)F)cn3)C3CC3)c2F)CC1` [Example A7-09, 2-(4-(((6-(cyclopropyl((5-(trifluoromethyl)pyridin-2-yl)methyl)amino)-5-fluoropyrimidin-4-yl)amino)methyl)-4-hydroxypiperidin-1-yl)acetamide], the half-inhibitory concentration (IC50) in assay [1] (Homo sapiens, PBMC, 48 h) was 0.19 µM. Further, the values for the EC50 in assay [2] (setting [3]) and in assay [2] (setting [4]) were 0.044 µM and less than 0.1 µM, respectively.
As to `NC(=O)CN1CC[C@@H](CNc2ncnc(N(Cc3ccc(C(F)(F)F)cc3)[C@H]3C[C@H](F)C3)c2F)[C@H](O)C1` (racemic) [Example A7-31, rac-2-((3R,4R)-4-(((5-fluoro-6-(((1r,3S)-3-fluorocyclobutyl)(4-(trifluoromethyl)benzyl)amino)pyrimidin-4-yl)amino)methyl)-3-hydroxypiperidin-1-yl)acetamide], inhibition in assay [1] (Homo sapiens, PBMC, 48 h) was half-maximal at 0.18 µM (IC50). Besides, in assay [2] (setting [3]), the EC50 was determined as 0.029 µM.
`CCN(Cc1ccc(C(F)(F)F)cc1)c1ncnc(NC[C@@]2(O)CCN(C(C(N)=O)c3ccncc3)C[C@@H]2O)c1F` (relative stereo) [Example D5-07, rel-2-((3R,4R)-4-(((6-(ethyl(4-(trifluoromethyl)benzyl)amino)-5-fluoropyrimidin-4-yl)amino)methyl)-3,4-dihydroxypiperidin-1-yl)-2-(pyridin-4-yl)acetamide]: the IC50 in assay [1] (Homo sapiens, PBMC, 48 h) was found to be 0.0025 µM. Also, the EC50 in assay [2] (setting [3]) was 0.0045 µM.
`NC(=O)CN1CC[C@H](CNc2ncnc(N(Cc3ccc(C(O)(C(F)(F)F)C(F)(F)F)cc3)C3CC3)c2F)[C@@H](O)C1` (stereo in doubt) [Example A7-54-2, rel-2-((3R,4R)-4-(((6-(cyclopropyl(4-(1,1,1,3,3,3-hexafluoro-2-hydroxypropan-2-yl)benzyl)amino)-5-fluoropyrimidin-4-yl)amino)methyl)-3-hydroxypiperidin-1-yl)acetamide] displayed an IC50 in assay [1] (Homo sapiens, PBMC, 48 h) of 0.0062 µM. In addition, the EC50 in assay [2] (setting [3]) is 0.0025 µM.
In assay [1] (Homo sapiens, PBMC, 48 h), `NC(=O)CN1CC[C@@H](CNc2ncnc(N(Cc3ccc(C(F)(F)F)cn3)C3CC3)c2F)[C@H](O)C1` (single isomer, unassigned) [Example A7-14-1] returned an IC50 of 0.038 µM. For the same compound, the EC50 in assay [2] (setting [3]) is 0.0083 µM; in assay [2] (setting [4]), less than 0.1 µM.
Consider `NC(=O)CN1CC[C@@H](CNc2ncnc(N(Cc3ccc(-n4cccn4)cc3F)C3CC3)c2F)[C@H](O)C1` (racemic) [Example A7-76, rac-2-((3R,4R)-4-(((6-(cyclopropyl(2-fluoro-4-(1H-pyrazol-1-yl)benzyl)amino)-5-fluoropyrimidin-4-yl)amino)methyl)-3-hydroxypiperidin-1-yl)acetamide], for which, in assay [1] (Homo sapiens, PBMC, 48 h), the IC50 turned out to be 0.092 µM. For the same compound, the EC50 in assay [2] (setting [3]) was 0.0066 µM.
The matching figures for `NC(=O)C(CO)N1CC[C@@H](CNc2ncnc(N(Cc3ccc(C(F)(F)F)cc3)C3CC3)c2F)[C@H](O)C1` (mixture of isomers) [Example A7-65, rac-2-((3R,4R)-4-(((6-(cyclopropyl(4-(trifluoromethyl)benzyl)amino)-5-fluoropyrimidin-4-yl)amino)methyl)-3-hydroxypiperidin-1-yl)-3-hydroxypropanamide]: 0.012 µM and 0.0058 µM.
The matching figures for `NC(=O)CN1CC[C@@H](CNc2ncnc(N(Cc3ccc(C(O)(C(F)(F)F)C(F)(F)F)cc3)C3CC3)c2F)[C@H](O)C1` (stereo in doubt) [Example A7-54, rac-2-((3R,4R)-4-(((6-(cyclopropyl(4-(1,1,1,3,3,3-hexafluoro-2-hydroxypropan-2-yl)benzyl)amino)-5-fluoropyrimidin-4-yl)amino)methyl)-3-hydroxypiperidin-1-yl)acetamide]: 0.0056 µM and 0.0006 µM.
For `CCN(Cc1ccc(C(F)(F)F)cc1F)c1ncnc(NC[C@H]2CCN(CC(N)=O)C[C@@H]2O)c1F` (stereo in doubt) [Example A7-26-2, rel-2-((3R,4R)-4-(((6-(ethyl(2-fluoro-4-(trifluoromethyl)benzyl)amino)-5-fluoropyrimidin-4-yl)amino)methyl)-3-hydroxypiperidin-1-yl)acetamide], in assay [1] (Homo sapiens, PBMC, 48 h), 0.029 µM corresponded to half-maximal inhibition (IC50). Besides, the EC50 in assay [2] (setting [3]) came out at 0.0085 µM.

(Values after patent US12441704B2, “Compounds active towards nuclear receptors” (NUEVOLUTION A/S, priority 2019, dated 2025).)
